Measured values taken from ChEMBL document CHEMBL3046372, “Design, Synthesis and Growth Inhibition Activity of Bis-Epoxyethyl Derivatives of Stallimycin Modified on the Amidino Moiety” (Med Chem Res, 2004).

Columns and labels:
[1] = system: K562; test: Induction of erythroid differentiation in Homo sapiens (human) K562 cells assessed as benzidine-positive cells at IC50 after 6 days; format: functional
[2] = system: K562; test: Induction of erythroid differentiation in Homo sapiens (human) K562 cells assessed as benzidine-positive cells at IC50 after 4 days; format: functional
[3] = system: K562; test: Cytotoxicity against Homo sapiens (human) K562 cells after 72 hr; format: functional, cell-based; details: K562, 72 h
[4] = system: L1210; test: Cytotoxicity against Mus musculus (mouse) L1210 cells after 72 hr; format: functional, cell-based; details: L1210, 72 h
[5] = system: L1210; test: Ratio of distamycin-A IC50 to compound IC50 for Mus musculus (mouse) L1210 cells; format: functional

| SMILES | Activity [1] | Activity [2] | IC50 [3] | IC50 [4] | Ratio IC50 [5] |
| --- | --- | --- | --- | --- | --- |
| Cn1cc(NC(=O)c2cc(NC(=O)c3cc(N(CC4CO4)CC4CO4)cn3C)cn2C)cc1C(=O)NCC/C(N)=N/C#N (stereo not given) | 65.3% | 46.3% | 1 µM | 6.3 µM | – |
| Cn1cc(NC(=O)c2cc(NC(=O)c3cc(N(CC4CO4)CC4CO4)cn3C)cn2C)cc1C(=O)NCC/C(N)=N/O (stereo not given) | 13% | 11% | 12 µM | 18 µM | – |
| Cn1cc(NC(=O)c2cc(NC(=O)c3cc(N(CC4CO4)CC4CO4)cn3C)cn2C)cc1C(=O)NCCC(N)=O (stereo not given) | 16% | 15% | 25 µM | 35 µM | 4 |
| CNC(=O)CCNC(=O)c1cc(NC(=O)c2cc(NC(=O)c3cc(N(CC4CO4)CC4CO4)cn3C)cn2C)cn1C (stereo not given) | 15% | 12% | 25 µM | 38 µM | 4 |
| Cn1cc(NC(=O)c2cc(NC(=O)c3cc(N)cn3C)cn2C)cc1C(=O)NCC/C(N)=N/C#N | – | – | > 50 µM | > 50 µM | – |
| Cn1cc(NC(=O)c2cc(NC(=O)c3cc(N)cn3C)cn2C)cc1C(=O)NCC/C(N)=N/O | – | – | > 50 µM | > 50 µM | – |
| Cn1cc(NC(=O)c2cc(NC(=O)c3cc(N)cn3C)cn2C)cc1C(=O)NCCC(N)=O | – | – | 45 µM | > 50 µM | – |
| CNC(=O)CCNC(=O)c1cc(NC(=O)c2cc(NC(=O)c3cc(N)cn3C)cn2C)cn1C | – | – | > 50 µM | > 50 µM | – |
| Cl.Cl.Cn1cc(NC(=O)c2cc(NC(=O)c3cc(NC=O)cn3C)cn2C)cc1C(=O)NCCC(=N)N | 10% | 8% | 10 µM | 50 µM | – |
